Laboratory results published in article PMC4510386, “Transglycosylation Activity of Glycosynthase Mutants of Endo-β-N-Acetylglucosaminidase from Coprinopsis cinerea” (PLoS ONE, 2015).

Target: T1, Endo-CC1 (Coprinopsis cinerea, UniProt A8P7P2)
T1 construct: gene CC1G_11102; full-length cDNA, 787 residues, His6-tagged, pET23b NdeI/XhoI, E. coli BL21-CodonPlus (DE3), HisTrap purified
Assay: HPLC of Dns-Asn-GlcNAc release, Lineweaver-Burk
Type: biochemical
Conditions: 100 mM phosphate pH 7.5, 37 C; hydrolysis

T1 sequence (A8P7P2 entry or part of it): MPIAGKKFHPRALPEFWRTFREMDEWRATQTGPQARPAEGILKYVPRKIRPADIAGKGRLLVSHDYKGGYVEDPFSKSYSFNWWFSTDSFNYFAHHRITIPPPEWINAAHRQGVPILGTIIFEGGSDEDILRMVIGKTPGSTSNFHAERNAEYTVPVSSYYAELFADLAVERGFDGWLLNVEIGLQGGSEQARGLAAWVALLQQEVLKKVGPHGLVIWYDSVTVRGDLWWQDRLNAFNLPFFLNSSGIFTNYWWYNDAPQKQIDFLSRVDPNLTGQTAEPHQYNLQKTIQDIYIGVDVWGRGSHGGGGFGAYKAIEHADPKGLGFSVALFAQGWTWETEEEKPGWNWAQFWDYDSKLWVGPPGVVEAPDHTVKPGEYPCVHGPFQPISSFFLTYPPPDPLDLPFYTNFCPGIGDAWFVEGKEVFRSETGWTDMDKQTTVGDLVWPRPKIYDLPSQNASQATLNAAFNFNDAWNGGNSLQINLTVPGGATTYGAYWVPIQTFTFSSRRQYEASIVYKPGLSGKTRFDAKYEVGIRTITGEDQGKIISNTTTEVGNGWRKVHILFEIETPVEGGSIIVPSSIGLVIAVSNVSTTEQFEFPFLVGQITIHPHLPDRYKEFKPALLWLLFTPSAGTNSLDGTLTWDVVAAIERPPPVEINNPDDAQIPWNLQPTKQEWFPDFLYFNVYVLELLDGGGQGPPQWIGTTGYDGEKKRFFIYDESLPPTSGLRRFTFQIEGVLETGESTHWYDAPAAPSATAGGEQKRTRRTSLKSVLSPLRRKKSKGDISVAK

Dns-SG
Km: 1.9 mM
